Read-outs that look alike come from different tables or passages of the source.

We go through eight compounds from patent US20260327243A1, “SPIRO-HETEROCYCLIC INHIBITORS OF KRAS G12C MUTANT PROTEINS AND USES THEREOF” (AMGEN INC., priority 2023, published 2026).

Assay [1] concerns advanced or metastatic cancer with the KRAS G12C mutation. The following applies: cited from earlier work; for disease control rate: Hong et al. 2020.
For assay [2], the system named is extracellular signal-regulated kinase (ERK). The following applies: preclinical studies; Hong et al. 2020; cited from earlier work.
The next assay relates to KRAS p.G12C tumors. As to conditions: mice bearing KRAS p.G12C tumors; Hong et al. 2020; cited from earlier work.
The next assay has as its target KRAS^G12C (Homo sapiens, UniProt P01116, C118A/G12C). The assay is described as follows: Coupled Nucleotide Exchange Assay. Format: biochemical. As to conditions: GDP-bound KRAS (aa 1-169) G12C/C118A; 2 h compound pre-incubation; SOS-mediated exchange, 30 min; cRAF binding (AlphaLISA). The method in brief: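 GDP-bound His-tagged KRAS aa 1-169 (G12C/C118A) pre-incubated 2 h with compound in 25 mM HEPES pH 7.4, 10 mM MgCl2, 0.01% Triton X-100 (±0.1% BSA), then SOS (aa 564-1049) plus GTP added for 30 min. GST-cRAF RBD binding read by AlphaLISA; DMSO-normalized, 4-parameter fit gives IC50.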

Another assay has as its system MIA PaCa-2 cells. The assay is described as follows: Cell Viability Assay, MIA PaCa-2. It is filed as cell-based. As to conditions: Homo sapiens, MIA PaCa-2, 72 h, human pancreatic carcinoma, CellTiter-Glo. (In ATP-based viability assays light output follows the ATP content of the culture.)
For a further assay, the system named is A549 cells. Briefly: Cell Viability Assay, A549. The following applies: A549; human lung carcinoma; 72 h; CellTiter-Glo. Format: cell-based.

KRAS^G12C, sequence (P01116 1-169 isoform P01116-2 G12C/C118A): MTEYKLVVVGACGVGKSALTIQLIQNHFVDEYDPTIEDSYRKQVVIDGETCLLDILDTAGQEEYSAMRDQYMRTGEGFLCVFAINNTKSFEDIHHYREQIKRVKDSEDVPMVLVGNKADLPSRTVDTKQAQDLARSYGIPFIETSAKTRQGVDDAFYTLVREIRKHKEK

Turning to `C=CC(=O)N1CCN(c2nc(=O)n(-c3c(C)ccnc3C(C)C)c3nc(-c4c(O)cccc4F)c(F)cc23)[C@@H](C)C1` [Sotorasib, sotorasib], the “response by cancer type” value in assay [1] (NSCLC, colorectal, pancreatic, appendiceal, endometrial, esophageal, unknown primary, ampullary, gastric, small bowel, sinonasal, bile duct cancer, melanoma) is given as “either stable disease (SD) or partial response (PR)”. Also, the disease control rate in assay [1] (colorectal cancer, 42 subjects) is on record as 73.8%; in assay [1] (non-small cell lung cancer, 59 subjects), 88.1%; in assay [1] (other tumor types, 28 subjects), 75.0%. For the same compound, the “inhibition of phosphorylation of ERK” value in assay [2] is recorded as “inhibited nearly all detectable phosphorylation of extracellular signal-regulated kinase (ERK)”. Besides, the tumor regression result in the assay with KRAS p.G12C tumors was “durable complete tumor regression”.
Usually IC50 stands for the concentration that inhibits the measured activity by half. A lower IC50 goes with higher potency. `C=CC(=O)N1CCN([C@@H]2CN(c3cc(N4CCC5(CC4)OCc4nccc(C)c45)nc(C(F)(F)F)n3)[C@@H]2C)CC1` [Compound 3-079, 1-(4-((2R,3R)-2-methyl-1-(6-(4-methyl-1′H,7H-spiro[furo[3,4-b]pyridine-5,4′-piperidin]-1′-yl)-2-(trifluoromethyl)-4-pyrimidinyl)-3-azetidinyl)-1-piperazinyl)-2-propen-1-one]: the 50% inhibitory concentration (IC50) on KRAS^G12C was 81 nM; in the assay with MIA PaCa-2 cells, 180 nM; in the assay with A549 cells, > 5 µM.
The corresponding values for `C=CC(=O)N1CCN(C2CN(c3cc(N4CCC5(CC4)OCc4cnccc45)nc(C(F)(F)F)c3C#N)C2)CC1` [Compound 3-043] are 1590 nM, 1290 nM and > 5 µM.
On the same counts, the results for `C=CC(=O)N1CCN([C@@H]2CN(c3cc(N4CCC5(CC4)OCC(CO)n4ncc(C)c45)nc(C(F)(F)F)n3)[C@@H]2C)CC1` (stereo partly drawn) [Compound 3-081, 1-(4-((2R,3R)-1-(6-(7′-(hydroxymethyl)-3′-methyl-6′,7′-dihydrospiro[piperidine-4,4′-pyrazolo[5,1-c][1.4]oxazin]-1-yl)-2-(trifluoromethyl)pyrimidin-4-yl)-2-methylazetidin-3-yl)piperazin-1-yl)prop-2-en-1-one] are 63 nM, 131 nM and > 5 µM.
The corresponding values for `C=CC(=O)N1CCN(C2CN(c3cc(N4CCC5(CC4)OCc4ncsc45)nc(C(F)(F)F)c3C#N)C2)CC1` [Compound 3-046, 4-(3-(4-Acryloylpiperazin-1-yl)azetidin-1-yl)-6-(4H-spiro[furo[3,4-d]thiazole-6,4′-piperidin]-1′-yl)-2-(trifluoromethyl)nicotinonitrile] are 253 nM, 1140 nM and > 5 µM.
In the case of `C=CC(=O)N1CCN([C@@H]2CN(c3cc(N4CCC5(C[C@H]4C)OCC=C5C)nc(C(F)F)n3)[C@@H]2C)CC1` (stereo partly drawn) [Compound 3-003, 1-(4-((2R,3R)-1-(2-(Difluoromethyl)-6-((7R)-4,7-dimethyl-1-oxa-8-azaspiro[4.5]dec-3-en-8-yl)pyrimidin-4-yl)-2-methylazetidin-3-yl)piperazin-1-yl) prop-2-en-1-one], the figures for the IC50 at KRAS^G12C, in the assay on MIA PaCa-2 cells and in the assay with A549 cells were 512 nM, 832 nM and > 5 µM, respectively.
In the case of `C=CC(=O)N1CCN([C@@H]2CN(c3cc(N4CCC5(CC4)OCc4ncsc45)nc(C(F)(F)F)n3)[C@@H]2C)CC1` [Compound 3-001, 1-(4-((2R,3R)-1-(6-(4H-Spiro[furo[3,4-d]thiazole-6,4′-piperidin]-1′-yl)-2-(trifluoromethyl)pyrimidin-4-yl)-2-methylazetidin-3-yl)piperazin-1-yl) prop-2-en-1-one], the results for the IC50 on KRAS^G12C, in the assay with MIA PaCa-2 cells and in the assay with A549 cells were 376 nM, 665 nM and > 5 µM, respectively.
On the same counts, the results for `C=CC(=O)N1CCN([C@@H]2CN(c3cc(N4CC[C@]5(C[C@H]4C)OC[C@H](COC)n4ncc(C)c45)nc(C(F)(F)F)n3)[C@@H]2C)CC1` (single isomer, unassigned) [Compound 3-089-1] are 42 nM, 102 nM and > 5 µM.
